From patent US6635278B1, “Pharmaceutical formulations” (Gilead Sciences, Inc., priority 1998, dated 2003)

What was measured:
[1] = AD solubility in crystallization solvents; format: physicochemical
[2] = Stability of aqueous AD solutions versus pH; format: physicochemical

Structure (SMILES): CC(C)(C)C(=O)OCOP(=O)(COCCn1cnc2c(N)ncnc21)OCOC(=O)C(C)(C)C [AD, 9-[2-[[bis[(pivaloyloxy)methyl]phosphono]methoxy]ethyl]adenine]
- AD content the solvent can contain ([1]; methanol or CH2Cl2): more than 50%
- upper limit of solubility of AD ([1]; most crystallization solvents at room temperature): 10-41%
- solubility ([1]; organic solvent or mixture, in di-n-butyl ether): < 300 µg/mL
- pH of maximum stability [2]: 3-5
